In this test the test system is M. tuberculosis H37Rv growth inhibition with meropenem. Kind of test: dose response, H37Rv, with and without meropenem (AID 434987).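 Further: growth over 7 days at 37 °C before Alamar Blue read on day 9.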
Where [1] appears, read: M. tuberculosis H37Rv growth inhibition, measured here: IC50 without meropenem.
Setting [2] is: M. tuberculosis H37Rv growth inhibition, measured here: IC90 without meropenem.
Setting [3] is: measured here: IC90 with meropenem.

Active and inactive are the calls of the source. How the calls were made is not given here.

By IC50 is commonly meant the concentration that inhibits the measured activity by half. By IC90 is commonly meant the point of the concentration-response curve where the effect stands at 90%. The low end stands for an effect from little substance, the high end for a need for much substance. With `COc1ccc(-c2c(C(F)(F)F)oc3cc(OCC(=O)Nc4ccccc4C(F)(F)F)ccc3c2=O)cc1OC`, the IC50 is > 100 µM (inactive). In addition, the IC50 under setting [1] is > 100 µM. Further, the concentration for an effect of 90% (IC90) under setting [2] is > 100 µM. For the same molecule, under setting [3], the IC90 was > 100 µM.

Turning to `O=C(CCS(=O)(=O)c1ccc(F)cc1)Nc1nnc(-c2cccs2)o1`, the IC50 was 2.94 µM. Under setting [1], this molecule returned a half-inhibitory concentration (IC50) of 47.2 µM. Also, the IC90 under setting [2] is > 100 µM. For the same molecule, the IC90 under setting [3] was > 100 µM.

For the molecule `COc1ccc2c(c1)c(CC(=O)Nc1ccc(C)cc1)c(C)n2C(=O)c1ccc(Cl)cc1`, the IC50 is > 100 µM (inactive). Also, under setting [1], the IC50 is > 100 µM. Under setting [2], the IC90 is > 100 µM. For the same molecule, the IC90 under setting [3] is > 100 µM.

With `COc1cccc(CNC(=O)C(Cc2ccccc2)n2cccc2)c1` (configuration not stated), the IC50 was 50.7 µM (inactive). Also, under setting [1], the concentration for half-maximal inhibition (IC50) came out at 67.4 µM. Also, under setting [2], the IC90 is > 100 µM. Also, under setting [3], the IC90 is > 100 µM.

Regarding `Cc1cccc(NC(=O)c2nc[nH]c2C(=O)N[C@@H](CC(C)C)C(=O)OCc2ccccc2)c1`, the IC50 was 9.43 µM. Under setting [1], this molecule yielded an IC50 of 26.1 µM. In addition, under setting [2], the IC90 amounted to 51.8 µM. Also, the IC90 under setting [3] is > 100 µM.

`O=C1OC(/C=C/c2ccccc2)=NC/1=C/c1ccco1`: the IC50 is 0.691 µM. The same molecule had an IC50 under setting [1] of 3.11 µM. Under setting [2], this molecule had an IC90 of 13 µM. The molecule further displayed an IC90 under setting [3] of 13.9 µM.

As to `N#Cc1ccc(NCC(=O)Nc2ccc(S(=O)(=O)N3CCCCC3)cc2)cc1`, the IC50 is > 100 µM (inactive). Also, the IC50 under setting [1] is > 100 µM. Besides, under setting [2], the IC90 was > 100 µM. For the same molecule, the concentration for an effect of 90% (IC90) under setting [3] is > 100 µM.

In the case of `COc1ccc(C(=O)Nc2ccccc2C(=O)NC(C(=O)NCc2ccco2)C(C)C)cc1` (configuration not stated), the IC50 is > 100 µM (inactive). Further, under setting [1], the IC50 is > 100 µM. Also, under setting [2], the IC90 is > 100 µM. Also, the IC90 under setting [3] is > 100 µM.

Take `O=C1CC(Nc2ccc(N3CCOCC3)cc2)C(=O)N1C1CCCCC1` (configuration not stated): the IC50 is > 100 µM (inactive). In addition, under setting [1], the IC50 was > 100 µM. Under setting [2], the IC90 was > 100 µM. The concentration for an effect of 90% (IC90) under setting [3] was > 100 µM.

With `CCC(=O)Oc1oc(-c2ccccc2)nc1C=Nc1ccc(C)cc1`, the IC50 is > 100 µM (inactive). Besides, under setting [1], the IC50 is > 100 µM. Besides, the IC90 under setting [2] was > 100 µM. The 90% effect concentration (IC90) under setting [3] was > 100 µM.

On to `CCN(CC)c1ccc(CN2CCCCCC2)cc1`, for which the IC50 was 43.6 µM (inactive). The half-maximal inhibitory concentration (IC50) under setting [1] stood at 48.1 µM. In addition, under setting [2], the 90% effect concentration (IC90) was > 100 µM. This molecule returned an IC90 under setting [3] of 49.4 µM.

`c1ccc(-n2c3ccccc3c3ccccc32)cc1`: the IC50 is 3.27 µM. Further, under setting [1], the IC50 is > 100 µM. Besides, under setting [2], the IC90 was > 100 µM. For the same molecule, the IC90 under setting [3] stood at 22.7 µM.

With `Cc1ccccc1OCC(=O)Nc1ccccc1N1CCOCC1`, the IC50 is 51.3 µM (inactive). Also, the IC50 under setting [1] was > 100 µM. Also, the IC90 under setting [2] was > 100 µM. Also, under setting [3], the IC90 was > 100 µM.

For `O=C(CSc1nnc(-c2ccncc2)o1)c1cccc([N+](=O)[O-])c1`, the IC50 was 31.6 µM (inactive). Moreover, the IC50 under setting [1] worked out at 46.9 µM. For the same molecule, the IC90 under setting [2] was > 100 µM. The molecule further gave an IC90 under setting [3] of 45.4 µM.

With `CCCc1cc(C(=O)OCC(=O)N2CCN(c3ccc(OC)cc3)CC2)sc1C`, the IC50 was > 100 µM (inactive). Under setting [1], the IC50 was > 100 µM. Further, under setting [2], the 90% effect concentration (IC90) is > 100 µM. Further, the IC90 under setting [3] was > 100 µM.

On to `O=C(NCc1ccco1)c1cc2n(n1)C(C(F)(F)F)CC(c1ccc(F)cc1)N2` (configuration not stated), for which the IC50 is > 100 µM (inactive). Besides, the IC50 under setting [1] is > 100 µM. The IC90 under setting [2] is > 100 µM. Also, the IC90 under setting [3] is > 100 µM.

On to `Nc1ccc(N=Nc2ccccc2O)c(N)c1`, for which the IC50 is 6.58 µM. Moreover, the concentration for half-maximal inhibition (IC50) under setting [1] came to 33.8 µM. Moreover, the IC90 under setting [2] was > 100 µM. The same molecule displayed an IC90 under setting [3] of 34 µM.

Turning to `COc1cc(OC)c(OC)cc1/C=C1\CCC(C2CCCC2)C1=O` (configuration not stated), the IC50 is 55.9 µM (inactive). This molecule also returned an IC50 under setting [1] of 77.5 µM. Besides, the concentration for an effect of 90% (IC90) under setting [2] was > 100 µM. Moreover, the IC90 under setting [3] was > 100 µM.

Take `CCNc1nc(CN2CCCCC2)nc2scc(-c3ccccc3)c12`: the IC50 is 8.75 µM. Further, the IC50 under setting [1] stood at 47.2 µM. Also, the IC90 under setting [2] is > 100 µM. In addition, under setting [3], the IC90 was 57.3 µM.

For `O=C(CSc1nnc(SCc2ccc(Cl)cc2)s1)c1ccc2c(c1)OCO2`, the IC50 is > 100 µM (inactive). Moreover, the IC50 under setting [1] was > 100 µM. Also, under setting [2], the IC90 was > 100 µM. Under setting [3], the IC90 is > 100 µM.

Take `Cc1cccc(-n2nc([N+](=O)[O-])c(=NC3CCN(Cc4ccccc4)CC3)n2O)c1`: the IC50 is 25.9 µM (inactive). Moreover, the IC50 under setting [1] was 45.8 µM. For the same molecule, the IC90 under setting [2] stood at 49 µM. Under setting [3], this molecule came in with an IC90 of 30.5 µM.

For the molecule `O=C(OCC(=O)c1c[nH]c2ccccc12)c1cccc([N+](=O)[O-])c1`, the IC50 is > 100 µM (inactive). In addition, the IC50 under setting [1] was > 100 µM. For the same molecule, the IC90 under setting [2] was > 100 µM. Also, under setting [3], the IC90 was > 100 µM.

As for `N#CC1=C2C=Cc3ccccc3N2CCCC1=O`, the IC50 was 21.6 µM. The molecule also gave an IC50 under setting [1] of 93.3 µM. For the same molecule, the 90% effect concentration (IC90) under setting [2] is > 100 µM. Further, the IC90 under setting [3] is > 100 µM.
